Data as given in patent US11919908B2, “Substituted pyrrolo[2,3-d]pyrimidine compounds as JAK2 V617F inhibitors” (Incyte Corporation, priority 2020, dated 2024).

Tests used:
[1] = biological target: T1, pseudo-kinase domain (JH2) of human Wild Type JAK2 (Homo sapiens, UniProt O60674, F794H/W659A/W777A); experiment: JAK2 LanthaScreen JH2-WT Binding Assay; conditions: 50 nM Fluorescent JAK2-JH2 Tracer, 1 hour at 25° C.
T1 construct: pseudo-kinase domain (JH2, amino-acids 536-812 with 3 surface mutations W659A, W777A, F794H); His (C); purchased BPS Bioscience 79463; host or cells: baculovirus expression system
Method: (§1) Example B. JAK2 LanthaScreen JH2-WT Binding Assay JAK2 JH2-WT binding assay utilizes pseudo-kinase domain (JH2, amino-acids 536-812 with 3 surface mutations […]) of human Wild Type JAK2 expressed as C-terminal His-Avi-tagged, biotinylated protein in a baculovirus expression system (BPS Bioscience, Catalog #79463). The assay was conducted in black 384-well polystyrene plates in a final reaction volume of 20 μL. JAK2 JH2-WT (0.145 nM) was incubated with compounds (100 nL serially diluted in DMSO) in the presence of 50 nM Fluorescent JAK2-JH2 Tracer (MedChem Express Catalog #HY-102055) and 0.25 nM Streptavidin-Tb cryptate (Cisbio Part #610SATLB) in assay buffer (50 mM Tris, pH=7.5, 10 mM MgCl2, 0.01% Brij-35, 0.1% BSA, 1 mM EGTA, 5% Glycerol and 5 mM DTT). Non-specific binding was accessed in the presence of 2 mM ATP. After incubation for 1 hour at 25° C., LanthaScreen signals were read on a PHERAstar FS plate reader (BMG LABTECH). Data was analyzed with IDBS XLfit and GraphPad Prism 5.0 software using a four parameter dose response curve to determine IC50 for each compound.

[2] = biological target: T2, catalytic domain (JH1) of human JAK2 (Homo sapiens, UniProt O60674); experiment: JAK2 LanthaScreen JH1 Binding Assay; conditions: 50 nM Fluorescent JAK2-JH1 Tracer, 2 hours at 25° C.
T2 construct: catalytic domain (JH1, amino acids 826-1132) of human JAK2; FLAG (N); purchased Carna Biosciences 08-445-20N; host or cells: baculovirus expression system
Method: Example A. JAK2 LanthaScreen […] Binding Assay JAK2 JH1 binding assay utilizes catalytic domain (JH1, amino acids 826-1132) of human JAK2 expressed as N-terminal FLAG-tagged, biotinylated protein in a baculovirus expression system (Carna Biosciences, Product #08-445-20N). The assay was conducted in black 384-well polystyrene plates in a final reaction volume of 20 μL. JAK2 JH1 (1.5 nM) was incubated with compounds (100 nL serially diluted in DMSO) in the presence of 50 nM Fluorescent JAK2-JH1 Tracer and 0.5 nM Streptavidin-Tb cryptate (Cisbio Part #610SATLB) in assay buffer (50 mM Tris, pH=7.5, 10 mM MgCl2, 0.01% Brij-35, 0.1% BSA, 1 mM EGTA, 5% Glycerol and 5 mM DTT). Non-specific binding was accessed in the presence of 2 mM ATP. After incubation for 2 hours at 25° C., LanthaScreen signals were read on a PHERAstar FS plate reader (BMG LABTECH). Data was analyzed with IDBS XLfit and GraphPad Prism 5.0 software using a four parameter dose response curve to determine IC50 for each compound.

[3] = biological target: T3, pseudo-kinase domain (JH2) of human V617F mutant JAK2 (Homo sapiens, UniProt O60674, F794H/V617F/W659A/W777A); experiment: JAK2 LanthaScreen JH2-V617F Binding Assay; conditions: 50 nM Fluorescent JAK2-JH2 Tracer, 1 hour at 25° C.
T3 construct: pseudo-kinase domain (JH2, amino-acids 536-812 with 3 surface mutations W659A, W777A, F794H); His (C); purchased BPS Bioscience 79498; host or cells: baculovirus expression system
Method: as §1, with “C.” for “B.”, “JH2-V617F” for “JH2-WT”, “V617F mutant” for “Wild Type”, “#79498).” for “#79463).”, “JH2-V617F (0.26” for “JH2-WT (0.145”

T2 sequence (O60674 826-1132): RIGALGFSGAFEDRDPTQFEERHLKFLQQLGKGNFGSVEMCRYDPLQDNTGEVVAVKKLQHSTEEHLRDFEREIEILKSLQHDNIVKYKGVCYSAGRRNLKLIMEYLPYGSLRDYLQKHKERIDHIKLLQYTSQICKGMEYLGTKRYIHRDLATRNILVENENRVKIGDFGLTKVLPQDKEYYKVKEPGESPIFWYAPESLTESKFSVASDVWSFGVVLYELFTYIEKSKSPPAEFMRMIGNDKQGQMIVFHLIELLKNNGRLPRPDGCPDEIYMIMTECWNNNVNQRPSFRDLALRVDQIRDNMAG
T3 sequence (O60674 536-812 V617F/W659A/W777A/F794H): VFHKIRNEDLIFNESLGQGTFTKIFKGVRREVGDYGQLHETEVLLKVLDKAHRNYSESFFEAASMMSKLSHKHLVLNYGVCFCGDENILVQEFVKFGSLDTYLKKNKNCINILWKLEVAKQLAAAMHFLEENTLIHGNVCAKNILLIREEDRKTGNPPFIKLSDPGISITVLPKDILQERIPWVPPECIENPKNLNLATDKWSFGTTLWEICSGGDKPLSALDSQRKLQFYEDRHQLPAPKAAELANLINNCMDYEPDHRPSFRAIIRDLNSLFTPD
T1 sequence (O60674 536-812 W659A/W777A/F794H): as the sequence (O60674 536-812 V617F/W659A/W777A/F794H) above, with F82V counted along it

| Structure (SMILES) | IC50 [1] [µM] | IC50 [2] [µM] | IC50 [3] [µM] |
| --- | --- | --- | --- |
| CN(C)S(=O)(=O)c1ccc(-c2[nH]c3nc(N)[nH]c(=O)c3c2-c2ccccc2OC(F)F)cc1 [Example 19, 4-(2-Amino-5-(2-(difluoromethoxy)phenyl)-4-oxo-4,7-dihydro-3H-pyrrolo[2,3-d]pyrimidin-6-yl)-N,N-dimethylbenzene sulfonamide] | > 2.5 | > 2.5 | 1 to 2.5 |
| CN(C)S(=O)(=O)c1ccc(-c2[nH]c3nc(N)[nH]c(=O)c3c2-c2cccc3cn[nH]c23)cc1 [Example 20, 4-(2-Amino-5-(1H-indazol-7-yl)-4-oxo-4,7-dihydro-3H-pyrrolo[2,3-d]pyrimidin-6-yl)-N,N-dimethylbenzene sulfonamide] | > 2.5 | > 2.5 | > 2.5 |
| CN(C)S(=O)(=O)c1ccc(-c2[nH]c3nc(N)[nH]c(=O)c3c2-c2ccc3c(c2)CCNC3=O)cc1 [Example 21, 4-(2-Amino-4-oxo-5-(1-oxo-1,2,3,4-tetrahydro-isoquinolin-6-yl)-4,7-dihydro-3H-pyrrolo[2,3-d]pyrimidin-6-yl)-N,N-dimethylbenzene sulfonamide] | 0.1 to 0.5 | 1 to 2.5 | 0.1 to 0.5 |
| CN1CCOc2cc(-c3c(-c4ccc(S(=O)(=O)N(C)C)cc4)[nH]c4nc(N)[nH]c(=O)c34)ccc21 [Example 22, 4-(2-Amino-5-(4-methyl-3,4-dihydro-2H-benzo[b] [1,4]oxazin-7-yl)-4-oxo-4,7-dihydro-3H-pyrrolo [2,3-d]pyrimidin-6-yl)-N,N-dimethylbenzene sulfonamide] | 0.5 to 1 | 1 to 2.5 | 0.5 to 1 |
| COc1cc(C(N)=O)ccc1-c1c(-c2ccc(S(=O)(=O)N(C)C)cc2)[nH]c2nc(N)[nH]c(=O)c12 [Example 23, 4-(2-Amino-6-(4-(N,N-dimethylsulfamoyl)phenyl)-4-oxo-4,7-dihydro-3H-pyrrolo[2,3-d]pyrimidin-5-yl)-3-methoxy-benzamide] | 0.5 to 1 | > 2.5 | 0.5 to 1 |
| COc1ccc(C(F)(F)F)cc1-c1c(-c2ccc(S(=O)(=O)N(C)C)cc2)[nH]c2nc(N)[nH]c(=O)c12 [Example 24, 4-(2-Amino-5-(2-methoxy-5-(trifluoromethyl)phenyl)-4-oxo-4,7-dihydro-3H-pyrrolo[2,3-d]pyrimidin-6-yl)-N,N-dimethylbenzene sulfonamide] | 1 to 2.5 | > 2.5 | 1 to 2.5 |
| COc1ccc(OC)c(-c2c(-c3ccc(S(=O)(=O)N(C)C)cc3)[nH]c3nc(N)[nH]c(=O)c23)c1 [Example 25, 4-(2-Amino-5-(2,5-dimethoxyphenyl)-4-oxo-4,7-dihydro-3H-pyrrolo[2,3-d]pyrimidin-6-yl)-N,N-dimethylbenzene sulfonamide] | 0.5 to 1 | > 2.5 | 0.5 to 1 |

Now from value to compound:

| IC50 [1] [µM] | IC50 [2] [µM] | IC50 [3] [µM] | Structure (SMILES) |
| --- | --- | --- | --- |
| 1 to 2.5 | > 2.5 | > 2.5 | COc1ccc(Cl)cc1-c1c(-c2ccc(S(=O)(=O)N(C)C)cc2)[nH]c2nc(N)[nH]c(=O)c12 [Example 27, 4-(2-Amino-5-(5-chloro-2-methoxyphenyl)-4-oxo-4,7-dihydro-3H-pyrrolo[2,3-d]pyrimidin-6-yl)-N,N-dimethylbenzene sulfonamide] |
| 1 to 2.5 | > 2.5 | 1 to 2.5 | COc1ncccc1-c1c(-c2ccc(S(=O)(=O)N(C)C)cc2)[nH]c2nc(N)[nH]c(=O)c12 [Example 28, 4-(2-Amino-5-(2-methoxy-pyridin-3-yl)-4-oxo-4,7-dihydro-3H-pyrrolo[2,3-d]pyrimidin-6-yl)-N,N-dimethylbenzene sulfonamide] |
| > 2.5 | > 2.5 | > 2.5 | CN(C)S(=O)(=O)c1ccc(-c2[nH]c3nc(N)[nH]c(=O)c3c2-c2cnn(Cc3cccnc3)c2)cc1 [Example 29, 4-(2-Amino-4-oxo-5-(1-(pyridin-3-ylmethyl)-1H-pyrazol-4-yl)-4,7-dihydro-3H-pyrrolo[2,3-d]pyrimidin-6-yl)-N,N-dimethylbenzene sulfonamide] |
| > 2.5 | > 2.5 | > 2.5 | CN(C)S(=O)(=O)c1ccc(-c2[nH]c3nc(N)[nH]c(=O)c3c2-c2cnn(Cc3ccccc3)c2)cc1 [Example 30, 4-(2-Amino-5-(1-benzyl-1H-pyrazol-4-yl)-4-oxo-4,7-dihydro-3H-pyrrolo[2,3-d]pyrimidin-6-yl)-N,N-dimethylbenzene sulfonamide] |
| 1 to 2.5 | 1 to 2.5 | 1 to 2.5 | CN(C)S(=O)(=O)c1ccc(-c2[nH]c3nc(N)[nH]c(=O)c3c2-c2cnn(Cc3ccc(C#N)cc3)c2)cc1 [Example 31, 4-(2-Amino-5-(1-(4-cyanobenzyl)-1H-pyrazol-4-yl)-4-oxo-4,7-dihydro-3H-pyrrolo[2,3-d]pyrimidin-6-yl)-N,N-dimethylbenzene sulfonamide] |
| 1 to 2.5 | > 2.5 | 1 to 2.5 | CN(C)S(=O)(=O)c1ccc(-c2[nH]c3nc(N)[nH]c(=O)c3c2-c2cnn(Cc3ccncc3)c2)cc1 [Example 32, 4-(2-Amino-4-oxo-5-(1-(pyridin-4-ylmethyl)-1H-pyrazol-4-yl)-4,7-dihydro-3H-pyrrolo[2,3-d]pyrimidin-6-yl)-N,N-dimethylbenzene sulfonamide] |
| 0.5 to 1 | > 2.5 | 0.5 to 1 | COc1cc2ccccc2cc1-c1c(-c2ccc(S(=O)(=O)N(C)C)cc2)[nH]c2nc(N)[nH]c(=O)c12 [Example 33, 4-(2-Amino-5-(3-methoxynaphthalen-2-yl)-4-oxo-4,7-dihydro-3H-pyrrolo[2,3-d]pyrimidin-6-yl)-N,N-dimethylbenzene sulfonamide] |
| 0.1 to 0.5 | > 2.5 | 0.1 to 0.5 | CN(C)S(=O)(=O)c1ccc(-c2[nH]c3nc(N)[nH]c(=O)c3c2-c2cccc(C(=O)O)c2)cc1 [Example 34, 3-(2-amino-6-(4-(N,N-dimethylsulfamoyl)phenyl)-4-oxo-4,7-dihydro-3H-pyrrolo[2,3-d]pyrimidin-5-yl)benzoic acid] |
| 0.1 to 0.5 | 0.5 to 1 | 0.1 to 0.5 | CN(C)S(=O)(=O)c1ccc(-c2[nH]c3nc(N)[nH]c(=O)c3c2-c2ccc(C(=O)O)cc2)cc1 [Example 35, 4-(2-amino-6-(4-(N,N-dimethylsulfamoyl)phenyl)-4-oxo-4,7-dihydro-3H-pyrrolo[2,3-d]pyrimidin-5-yl)benzoic acid] |
| 1 to 2.5 | 1 to 2.5 | 1 to 2.5 | CN(C)S(=O)(=O)c1ccc(-c2[nH]c3nc(N)[nH]c(=O)c3c2-c2cnn(C3CCS(=O)(=O)C3)c2)cc1 (stereo not drawn) [Example 36, 4-(2-Amino-5-(1-(1,1-dioxidotetrahydrothiophen-3-yl)-1H-pyrazol-4-yl)-4-oxo-4,7-dihydro-3H-pyrrolo[2,3-d]pyrimidin-6-yl)-N,N-dimethylbenzene sulfonamide] |
